One may read the IC50 as the midpoint of a concentration-inhibition curve.

Data set [1] deals with SKOV-3 human ovarian cancer cell line. Nature of the data set: MTT cytotoxicity of polycurcumins to SKOV-3 cells (72 h treatment). The protocol:
The human ovarian carcinoma SKOV-3 cell line was purchased from American type culture collection (ATCC). Cells were cultured in RPMI 1640 medium supplemented with 10% fetal bovine serum (HyClone, Logan, Utah) and grown at 37° C. in a humidified atmosphere of 5% CO2 (v/v) in air. All of the experiments involving cells were performed on cells in the exponential growth phase.
The cytotoxicity of polycurcumins was determined using the standard 3-(4,5-dimethylthiazolyl-2)-2,5-diphenyltetrazolium bromide (MTT) cell proliferation kit (ATCC, Manassas, Va.) according to manufacturer's protocol. In brief, SKOV-3 cells were seeded onto 96-well plates with a density of 15,000 cells per well and incubated at 37° C. in a humidified atmosphere of 95% air and 5% CO2 for 16 h. The medium in each well was replaced with 200 μL of culture medium containing the treatments and cultured for 72 h. The medium in each well was then replaced with fresh media and the cells were incubated for another 24 h. The incubation medium was then replaced with 100 μL of fresh medium and 10 μL of MIT reagent. After 6 h, 100 μL of detergent reagent was added to each well and incubated for 18 h at room temperature in the dark until all the crystals dissolved. The absorbance intensity at 570 nm was recorded on a Bio-Rad (model 550) microplate reader. Cell viability is defined as the percent live cells compared with untreated controls.
For each polycurcumin tested, the commoners such as 3,3′-dithiodipropionic acid, pyromellitic dianhydride, tri(ethylene glycol) divinyl ether and PEG, were used as controls.

For data set [2] the following is noted: PBS at pH 7.2; cited from earlier work.
For data set [3] the following is noted: cited from earlier work.
Data set [4] deals with DU145 prostate carcinoma, A549 lung carcinoma, and HT29 colon carcinoma. The following applies: read-out: IC50 (50% inhibitory concentration); variety of cancer cell lines; cited from earlier work.

pIC50: −log10 of the molar value. “Also recorded” adds a separate entry of the source. Like-named read-outs stand apart in the source and are kept apart here.

Regarding `O=C(O)CCSSCCC(=O)O` [3,3′-dithiodipropionic acid], the “cytotoxicity of comonomer controls against SKOV-3 cells” value (shortened to “cytotoxicity of comonomer controls”) in data set [1] is recorded as “no significant cytotoxicity”.
Regarding `COc1cc(C=CC(=O)CC(=O)C=Cc2ccc(O)c(OC)c2)ccc1O` [Curcumin, 1,7-bis-(4-hydroxy-3-methoxyphenyl)-hepta-1,6-diene-3,5-dione], the “half life (t1/2)” value in data set [2] is given as “less than 10 min”. The “solubility of free curcumin in water, in words” value in data set [3] was “almost insoluble in water; also recorded: practically insoluble in water”. For the same molecule, the pIC50 was 4.68 in data set [1] (Homo sapiens, SK-OV-3, read-out: IC50, curcumin equivalent dose) and 4.12 to 5.00 in data set [4]. In addition, the IC50 in data set [1] (Homo sapiens, SK-OV-3, read-out: IC50-C (IC50 in terms of curcumin-equivalent dose)) was determined as 7.8 µg/mL.
Regarding `O=c1oc(=O)c2cc3c(=O)oc(=O)c3cc12` [pyromellitic dianhydride], the “cytotoxicity of comonomer controls” value in data set [1] was “no significant cytotoxicity”.
`C=COCCOCCOCCOC=C` [tri(ethylene glycol) divinyl ether]: the “cytotoxicity of comonomer controls” value in data set [1] (SKOV-3, MTT, comonomers as controls) was “no significant cytotoxicity”.
In the case of polyethylene glycol [PEG], in data set [1], the “cytotoxicity of comonomer controls” value was “no significant cytotoxicity”.

Values taken from patent US20120003177A1 (priority 2008, published 2012).
